According to patent publication US12329158B2, “Large-scale methods of uniformly coating packaging surfaces with a volatile antimicrobial to preserve food freshness” (AGROFRESH INC., priority 2013, dated 2025):

Columns and labels:
[1] = Solubility in methanol (remark in Example 25); assay type: physicochemical; conditions: room temperature
[2] = tested on: Botrytis cinerea; assay: In-clamshell Compound A applied by painting, spraying or sublimation; strawberries (Example 1); assay type: in vivo; conditions: 5 mg/clamshell
Method: An in vivo assay was used to evaluate the ability of Compound A to volatilize from a clamshell chamber and control pathogenic infection when applied by various techniques. Multiple empty 1-lb PET clamshells (ProducePackaging.com, #036QT) were placed inside triplicate air-tight 36 L chamber (Fisher Scientific, Catalogue #08-642-23C) fitted with a bulkhead septum port (Swagelok, SS-401-61, Solon, OH).
Compound A headspace was permitted to equilibrate overnight at 21° C.
Five milligrams of Compound A was dissolved in 1 ml of ethanol prior to being uniformly administered to the interior of the clamshell by painting or spraying, and then dried for 5 minutes. After coating the clamshells with Compound A using various application techniques (i.e., sublimation, spraying, or painting), eight ethanol-washed strawberries were placed in the clamshell with stem end facing downwards. Each strawberry fruit was wounded using a T15 screwdriver tip to a uniform depth of eight mm (8 mm). […] Uninoculated strawberries were removed from their commercial package, and directly transferred into treated clamshells without any washing or inoculation steps.
Treated clamshells lids were closed, and then placed at 1° C. for an initial time period of 5 days. Clamshells were then removed from low temperature, and held for a second time period of 6 days at room temperature where the point of inoculation on the strawberry fruits was assessed for indication of disease incidence reported as a percentage (%). Severity of disease incidence was also reported.

[3] = tested on: Penicillium expansum; assay: Blue mold on apple, volatile assay; assay type: in vivo
Method: Compound A is mixed with acetone and 250 μL of the mixture is pipetted into a small glass tube. […] After incubation, fruits are evaluated by measuring the diameter (mm) of rot development (browning) up to 7 days at 21° C.

[4] = tested on: Botrytis cinerea; assay: In vitro inhibition assay for volatile fungicide, 12-well plates (Example 7); assay type: cell-based
Method: For testing activity against fungi pathogens, an in vitro inhibition assay for volatile antimicrobial compounds is developed using 12-Well (7 milliliter (mL) volume per well) microtiter plates. A 3-mL volume of full-strength Potato Dextrose Agar (PDA) is added to each well. After cooling, 1 microliter (μL) of 1×10^6 per mL Botrytis cinerea spore suspension is spot pipetted to the center of the agar. For the first experiment, inoculated plates are allowed to germinate for 5 days at 4° C. For the second experiment, plates are inoculated immediately prior to volatile fungicide treatment. Small Whatman #1 filter disks (Cat. No. 1001-0155) are placed, in duplicate, on the underside of a polyethylene PCR plate sealing film.
The acetone is permitted to evaporate for 5 minutes. The headspace around the Botrytis cinerea inoculum is then sealed inside the well by the film with the adhering disk containing the fungicide. Plates are inverted, placed over the treated disks and sealed to prevent any of the chemical from flaking from the disk and falling onto the inoculated agar. After 14 days of storage at 4° C., cultures are evaluated for percent growth relative to control. […]

## OB1OCc2cc(F)ccc21 [Compound A, 5-fluoro-1,3-dihydro-1-hydroxy-2,1-benzoxaborole]
[1]
  Solubility in methanol (in words): not soluble in methanol at room temperature
[2]; Inoculated Fruit, Paint, Day 0
  Gray Mold Incidence (%): 0.0%
[2]; Inoculated Fruit, Paint, Day 1
  Gray Mold Incidence (%): 0.0%
[2]; Inoculated Fruit, Paint, Day 2
  Gray Mold Incidence (%): 0.0%
[2]; Inoculated Fruit, Paint, Day 3
  Gray Mold Incidence (%): 0.0%
[2]; Inoculated Fruit, Paint, Day 4
  Gray Mold Incidence (%): 0.0%
[2]; Inoculated Fruit, Paint, Day 5
  Gray Mold Incidence (%): 0.0%
[2]; Inoculated Fruit, Paint, Day 6
  Gray Mold Incidence (%): 0.0%
[2]; Inoculated Fruit, Spray, Day 0
  Gray Mold Incidence (%): 0.0%
[2]; Inoculated Fruit, Spray, Day 1
  Gray Mold Incidence (%): 0.0%
[2]; Inoculated Fruit, Spray, Day 2
  Gray Mold Incidence (%): 0.0%
[2]; Inoculated Fruit, Spray, Day 3
  Gray Mold Incidence (%): 0.0%
[2]; Inoculated Fruit, Spray, Day 4
  Gray Mold Incidence (%): 0.0%
[2]; Inoculated Fruit, Spray, Day 5
  Gray Mold Incidence (%): 0.0%
[2]; Inoculated Fruit, Spray, Day 6
  Gray Mold Incidence (%): 0.0%
[2]; Inoculated Fruit, Sublimation, Day 0
  Gray Mold Incidence (%): 0.0%
[2]; Inoculated Fruit, Sublimation, Day 1
  Gray Mold Incidence (%): 0.0%
[2]; Inoculated Fruit, Sublimation, Day 2
  Gray Mold Incidence (%): 0.0%
[2]; Inoculated Fruit, Sublimation, Day 3
  Gray Mold Incidence (%): 0.0%
[2]; Inoculated Fruit, Sublimation, Day 4
  Gray Mold Incidence (%): 0.0%
[2]; Inoculated Fruit, Sublimation, Day 5
  Gray Mold Incidence (%): 0.9%
[2]; Inoculated Fruit, Sublimation, Day 6
  Gray Mold Incidence (%): 0.9%
[2]; Uninoculated Fruit, Paint, Day 0
  Gray Mold Incidence (%): 0.0%
[2]; Uninoculated Fruit, Paint, Day 1
  Gray Mold Incidence (%): 0.3%
[2]; Uninoculated Fruit, Paint, Day 2
  Gray Mold Incidence (%): 3.9%
[2]; Uninoculated Fruit, Paint, Day 3
  Gray Mold Incidence (%): 5.1%
[2]; Uninoculated Fruit, Paint, Day 4
  Gray Mold Incidence (%): 7.4%
[2]; Uninoculated Fruit, Paint, Day 5
  Gray Mold Incidence (%): 17.0%
[2]; Uninoculated Fruit, Paint, Day 6
  Gray Mold Incidence (%): 21.7%
[2]; Uninoculated Fruit, Spray, Day 0
  Gray Mold Incidence (%): 0.0%
[2]; Uninoculated Fruit, Spray, Day 1
  Gray Mold Incidence (%): 0.6%
[2]; Uninoculated Fruit, Spray, Day 2
  Gray Mold Incidence (%): 2.1%
[2]; Uninoculated Fruit, Spray, Day 3
  Gray Mold Incidence (%): 4.8%
[2]; Uninoculated Fruit, Spray, Day 4
  Gray Mold Incidence (%): 6.0%
[2]; Uninoculated Fruit, Spray, Day 5
  Gray Mold Incidence (%): 17.9%
[2]; Uninoculated Fruit, Spray, Day 6
  Gray Mold Incidence (%): 19.9%
[2]; Uninoculated Fruit, Sublimation, Day 0
  Gray Mold Incidence (%): 0.0%
[2]; Uninoculated Fruit, Sublimation, Day 1
  Gray Mold Incidence (%): 0.3%
[2]; Uninoculated Fruit, Sublimation, Day 2
  Gray Mold Incidence (%): 1.5%
[2]; Uninoculated Fruit, Sublimation, Day 3
  Gray Mold Incidence (%): 3.3%
[2]; Uninoculated Fruit, Sublimation, Day 4
  Gray Mold Incidence (%): 5.7%
[2]; Uninoculated Fruit, Sublimation, Day 5
  Gray Mold Incidence (%): 16.7%
[2]; Uninoculated Fruit, Sublimation, Day 6
  Gray Mold Incidence (%): 20.2%
[3]; 0.02 mg/L, Day 0
  Browning Rot (diameter; mm): 0.0 mm
[3]; 0.02 mg/L, Day 2
  Browning Rot (diameter; mm): 0.9 mm
[3]; 0.02 mg/L, Day 4
  Browning Rot (diameter; mm): 2.8 mm
[3]; 0.02 mg/L, Day 7
  Browning Rot (diameter; mm): 6.9 mm
[3]; 0.1 mg/L, Day 0
  Browning Rot (diameter; mm): 0.0 mm
[3]; 0.1 mg/L, Day 2
  Browning Rot (diameter; mm): 0.0 mm
[3]; 0.1 mg/L, Day 4
  Browning Rot (diameter; mm): 0.3 mm
[3]; 0.1 mg/L, Day 7
  Browning Rot (diameter; mm): 2.0 mm
[3]; 0.5 mg/L, Day 0
  Browning Rot (diameter; mm): 0.0 mm
[3]; 0.5 mg/L, Day 2
  Browning Rot (diameter; mm): 0.0 mm
[3]; 0.5 mg/L, Day 4
  Browning Rot (diameter; mm): 0.0 mm
[3]; 0.5 mg/L, Day 7
  Browning Rot (diameter; mm): 0.4 mm
[3]; 2.5 mg/L, Day 0
  Browning Rot (diameter; mm): 0.0 mm
[3]; 2.5 mg/L, Day 2
  Browning Rot (diameter; mm): 0.0 mm
[3]; 2.5 mg/L, Day 4
  Browning Rot (diameter; mm): 0.0 mm
[3]; 2.5 mg/L, Day 7
  Browning Rot (diameter; mm): 0.0 mm
[4]; 0.0006 mg per disk
  Botrytis inhibition % (in vitro): 46%
[4]; 0.001 mg per disk
  Botrytis inhibition % (in vitro): 69%
[4]; 0.0024 mg per disk
  Botrytis inhibition % (in vitro): 85%
[4]; 0.005 mg per disk
  Botrytis inhibition % (in vitro): 100%
[4]; 0.01 mg per disk
  Botrytis inhibition % (in vitro): 100%
[4]; 0.023 mg per disk
  Botrytis inhibition % (in vitro): 100%
[4]; 0.04 mg per disk
  Botrytis inhibition % (in vitro): 100%
[4]; 0.08 mg per disk
  Botrytis inhibition % (in vitro): 100%
[4]; 0.16 mg per disk
  Botrytis inhibition % (in vitro): 100%
[4]; 0.31 mg per disk
  Botrytis inhibition % (in vitro): 100%
[4]; 0.63 mg per disk
  Botrytis inhibition % (in vitro): 100%
[4]; 1.25 mg per disk
  Botrytis inhibition % (in vitro): 100%
[4]; volatile, 14 days at 4 C
  Rate giving 100% in vitro inhibition of Botrytis cinerea: 0.005 mg/disk
